Source: BindingDB's records for doi:10.1016/j.bmcl.2004.06.042 (Universidad De Buenos Aires, 2004)
pKi: −log10 of the molar value.

Target: Hypoxanthine-guanine phosphoribosyltransferase (Trypanosoma cruzi)
Assay: Inhibition of hypoxanthine-guanine phosphoribosyltransferase (TcHPRT)

pKi: 3.90
Compound: CN(C)CCC(O)(P(=O)(O)O)P(=O)(O)O [hydrogen 3-(dimethylammonio)-1-hydroxy-1-(hydroxyphosphinato)propylphosphonate]
